According to paper PMC7731310, “Pogostemon cablin Triggered ROS-Induced DNA Damage to Arrest Cell Cycle Progression and Induce Apoptosis on Human Hepatocellular Carcinoma In Vitro and In Vivo” (Molecules, 2020):
In brackets after ≈: the same amount, converted by molar mass.

Tests used:
HepG2 = test: MTT cell viability, HepG2; format: cell-based, Human; details: for IC50: Homo sapiens, HepG2, 48 hr, mean ± SD; for Selectivity index (SI) BNL CL.2/HepG2 / Selectivity index (SI) MDCK/HepG2 / Selectivity index (SI) SVEC/HepG: IC50 of normal cells/IC50 of HCC cells
Procedure: (§1) HCC cells (5 × 10^3/100 μL), SVEC, MDCK (1 × 10^4/100 μL), and BNL CL.2 cells (4 × 10^4/100 μL) were seeded in a 96-well plate. After incubating overnight at 37 ℃, the cells were treated with serially diluted drug concentrations for 24, 48, and 72 h. The cell viability was measured using an MTT assay.

Mahlavu = test: MTT cell viability, Mahlavu; format: cell-based, Human; details: for IC50: Homo sapiens, Mahlavu, 48 hr, mean ± SD; for Selectivity index (SI) BNL CL.2/Mahlavu / Selectivity index (SI) MDCK/Mahlavu / Selectivity index (SI) SVEC/Mahlavu: IC50 of normal cells/IC50 of HCC cells
Procedure: as §1

J5 = test: MTT cell viability, J5; format: cell-based, Human; details: for IC50: Homo sapiens, J5, 48 hr, mean ± SD; for Selectivity index (SI) BNL CL.2/J5 / Selectivity index (SI) MDCK/J5 / Selectivity index (SI) SVEC/J5: IC50 of normal cells/IC50 of HCC cells
Procedure: as §1

Huh7 = test: MTT cell viability, Huh7; format: cell-based, Human; details: for IC50: Homo sapiens, Huh-7, Huh7, 48 hr, mean ± SD; for Selectivity index (SI) BNL CL.2/Huh7 / Selectivity index (SI) MDCK/Huh7 / Selectivity index (SI) SVEC/Huh7: IC50 of normal cells/IC50 of HCC cells
Procedure: as §1

SVEC = test: MTT cell viability, SVEC normal cells; format: cell-based; details: Mus musculus, 48 hr, mean ± SD
Procedure: as §1

MDCK = test: MTT cell viability, MDCK normal cells; format: cell-based, Canine; details: Canis lupus familiaris, 48 hr, mean ± SD
Procedure: as §1

BNL CL.2 = test: MTT cell viability, BNL CL.2 normal liver cells; format: cell-based; details: Mus musculus, 48 hr, mean ± SD
Procedure: as §1

HepG2 cells = test: Regrowth assay (crystal violet), HepG2; details: PPa extract 15 μg/mL, sorafenib 0.2 μg/mL, 4 and 8 days
Procedure: (§2) After that, both cell lines were analyzed for flow cytometry. […] During treatments, fresh drugs were changed every two days and harvested the data at 4 and 8 days. After treatment, cells were stained with 0.1% crystal violet and absorbance was measured at 550 nm after dissolving in 0.5% acetic acid. For detection of indicated protein expressions, cells (2 × 10^6) seeded at 10 cm dishes. […] Cell lysates were collected for western blot.

Mahlavu cells = test: Regrowth assay (crystal violet), Mahlavu; details: PPa extract 15 μg/mL, sorafenib 0.2 μg/mL, 4 and 8 days
Procedure: as §2

Structure (SMILES) | IC50 (HepG2) [µg/mL] | IC50 (Mahlavu) [µg/mL] | IC50 (J5) [µg/mL] | IC50 (Huh7) [µg/mL] | IC50 (SVEC) [µg/mL] | IC50 (MDCK) [µg/mL] | IC50 (BNL CL.2) [µg/mL] | Selectivity index (SI) BNL CL.2/HepG2 (HepG2) | Selectivity index (SI) MDCK/HepG2 (HepG2) | Selectivity index (SI) SVEC/HepG (HepG2) | Selectivity index (SI) BNL CL.2/Mahlavu (Mahlavu) | Selectivity index (SI) MDCK/Mahlavu (Mahlavu) | Selectivity index (SI) SVEC/Mahlavu (Mahlavu) | Selectivity index (SI) BNL CL.2/J5 (J5) | Selectivity index (SI) MDCK/J5 (J5) | Selectivity index (SI) SVEC/J5 (J5) | Selectivity index (SI) BNL CL.2/Huh7 (Huh7) | Selectivity index (SI) MDCK/Huh7 (Huh7) | Selectivity index (SI) SVEC/Huh7 (Huh7) | further results
O=c1[nH]cc(F)c(=O)[nH]1 [5-FU, 5-Fluorouracil] | 2.09 ± 1.63 (≈ 16.1 µM) | 15 ± 3.71 (≈ 115 µM) | 18.8 ± 0.91 (≈ 144 µM) | 4.88 ± 3.37 (≈ 37.5 µM) | 1.69 ± 2.8 (≈ 13 µM) | 8.74 ± 0.53 (≈ 67.2 µM) | > 20 | – | – | – | – | – | – | – | – | – | – | – | – | –
CNC(=O)c1cc(Oc2ccc(NC(=O)Nc3ccc(Cl)c(C(F)(F)F)c3)cc2)ccn1 [SOR, sorafenib] | 3.52 ± 1.97 (≈ 7.57 µM) | 6.07 ± 1.06 (≈ 13.1 µM) | 2.39 ± 1.91 (≈ 5.14 µM) | 1.77 ± 4.31 (≈ 3.81 µM) | 8.55 ± 2.73 (≈ 18.4 µM) | 6.95 ± 1.45 (≈ 15 µM) | 10.8 ± 5.17 (≈ 23.1 µM) | 3.1 | 2.0 | 2.4 | 1.8 | 1.1 | 1.4 | 4.5 | 2.9 | 3.6 | 6.1 | 3.9 | 4.8 | inhibition of cell regrowth (HepG2 cells): no inhibitory effect; inhibition of cell regrowth (Mahlavu cells): no inhibitory effect
COc1cc([C@@H]2c3cc4c(cc3[C@@H](O[C@@H]3O[C@@H]5CO[C@@H](C)O[C@H]5[C@H](O)[C@H]3O)[C@H]3COC(=O)[C@H]23)OCO4)cc(OC)c1O [VP-16, Etoposide] | 4.73 ± 3.57 (≈ 8.04 µM) | 4.54 ± 2.17 (≈ 7.71 µM) | 3.01 ± 2.75 (≈ 5.11 µM) | 5.11 ± 2.08 (≈ 8.68 µM) | 1.85 ± 0.49 (≈ 3.14 µM) | 3.38 ± 0.43 (≈ 5.74 µM) | 6.43 ± 3.02 (≈ 10.9 µM) | 1.4 | 0.7 | 0.4 | 1.4 | 0.8 | 0.4 | 2.1 | 1.1 | 0.6 | 1.3 | 0.7 | 0.4 | –
